These results are taken from publication PMC2905291, “A phase I study of the safety and pharmacokinetics of the histone deacetylase inhibitor belinostat administered in combination with carboplatin and/or paclitaxel in patients with solid tumours” (British Journal of Cancer, 2010).

Like-named read-outs stand apart in the source and are kept apart here.

Data set [1] deals with patients with advanced solid malignancies. The arrangement: method as in Ramalingam et al, 2007a. The note with it: ref Ramalingam et al, 2007a, cited from earlier work.
Data set [2] concerns patients with solid tumours. The note with it: ref Munster et al, cited from earlier work; for patients who responded: valproic acid with epirubicin, 2009.
Data set [3] in a line: Paclitaxel plasma pharmacokinetics in patients after belinostat (LC-MS/MS, non-compartmental). It is filed as in vivo, human. The method, then:
(§1) Blood samples for belinostat PK, when administered alone were taken pre-treatment, at the end of infusion and 5 min, 15, 30 min, 1 h, 2, 3 h, 3 h 15 min, 3 h 30 min, 4, 5, 6 h after infusion on days 1 and 3 of cycle 1. Samples for carboplatin or paclitaxel when administered after belinostat, were taken relative to the start of belinostat infusion at 3 h (pre-carboplatin or-paclitaxel), 3 h 15 min, 3 h 30 min, 4, 5 and 6 h in cycle 1 on day 3. In addition, samples were taken for BelCaP when administered together at 6 h 15 min, 6 h 30 min, 7, 8, 9 and 24 h after belinostat on day 3. Belinostat and paclitaxel levels were determined in lithium-heparinised plasma using validated solid-phase extraction high performance liquid chromatograpgy (HPLC)-tandem mass spectrometric detection (MS/MS) methods (Covance, Indianapolis, IN, USA). The lower limit of quantitation was 5 and 10 ng ml^−1 for belinostat and paclitaxel, respectively. Belinostat plasma concentrations were determined at Covance using a validated method involving solid-phase extraction, separation with acetic acid acetonitril gradient on reversed phase C18 silica and MS/MS using penta-deuterated belinostat as the internal standard. Belinostat and the internal standard were detected using negative ion electron spray with the transition from 317 to 143 and 322 to 143 m z^−1, respectively.
Paclitaxel and the internal standard, cephalomannine, are extracted from human plasma by solid-phase extraction on a cyanopropyl solid-phase extraction cartridge. After eluting with the mobile phase, the eluent is directly analysed using liquid chromatography with MS/MS. The standard curve range for this assay is from 10.0 to 2000 ng ml^−1 for paclitaxel, using a plasma sample volume of 0.250 ml.
(§2) Plasma concentration–time curves of all three analytes were analysed by non-compartmental methods using WinNonlin (version 4.0.1 Pharsight Corp., Cary, NC, USA). For all analytes the AUC was estimated from the start of infusion by the logarithmic-linear trapezoidal rule and extrapolated to infinity using the estimated value of the slope of the terminal logarithmic-linear disposition phase. Analysis was carried out on the non-dose-normalised plasma concentration of carboplatin, as dosing had already been normalised per GFR using Calvert's formula ([Calvert et al, 1989]).

Data set [4] can be described thus: Carboplatin (platinum by ICP-MS) plasma pharmacokinetics in patients after belinostat and paclitaxel. The class given is in vivo, human. The note with it: for AUCall / AUCinf / Cl / Cmax / T1/2 / Vss: mean±s.d. The method, then:
as §1
Human plasma samples were analysed for Pt from carboplatin by inductively coupled plasma-mass spectrometry after dilution with 0.01% Triton X-100 in 0.1% nitric acid. The samples were analysed without pre-digestion or extraction directly against matrix-matched standard solutions. Intensity, as counts per second from Pt, mass 195, was measured. Terbium, mass 159, was used as an internal standard. The results were calculated from the net intensity ratio of Pt to internal standard. The standard curve range was 2.00–1000 ng Pt ml^−1 in plasma. Samples above the calibration range were diluted using blank human plasma.
as §2

[5] abbreviates: vorinostat with carboplatin and paclitaxel, 25 patients treated.
Where [6] appears, read: valproic acid combined with epirubicin, 2007.
The mark [7] stands for this setting: human, plasma, iv, paclitaxel 175 mg m^−2 i.v. day 3 after belinostat 600 mg m^−2, 6 patients, mean±s.d.
Where [8] appears, read: human, plasma, iv, paclitaxel 175 mg m^−2 i.v. day 3 after belinostat 800 mg m^−2, 3 patients, mean±s.d.
Setting [9] is: human, plasma, iv, paclitaxel 175 mg m^−2 i.v. day 3 after belinostat 1000 mg m^−2, 7 patients, mean±s.d.
[10] abbreviates: paclitaxel 175 mg m^−2 i.v. day 3 after belinostat 600 mg m^−2, 6 patients, mean±s.d.
Setting [11] is: paclitaxel 175 mg m^−2 i.v. day 3 after belinostat 800 mg m^−2, 3 patients, mean±s.d.
The mark [12] stands for this setting: paclitaxel 175 mg m^−2 i.v. day 3 after belinostat 1000 mg m^−2, 7 patients, mean±s.d.
Setting [13] is: carboplatin equivalents from total platinum, target AUC 5 i.v. day 3 after belinostat 600 mg m^−2 and paclitaxel, 7 patients.
Where [14] appears, read: carboplatin equivalents from total platinum, target AUC 5 i.v. day 3 after belinostat 800 mg m^−2 and paclitaxel, 3 patients.
Where [15] appears, read: carboplatin equivalents from total platinum, target AUC 5 i.v. day 3 after belinostat 1000 mg m^−2 and paclitaxel, 7 patients.
[16] abbreviates: carboplatin equivalents, target AUC 5 i.v. day 3, Total Mean over all belinostat dose levels.

As for `O=C(CCCCCCC(=O)Nc1ccccc1)NO` [vorinostat], the “grade III/IV neutropenia, patients” value in data set [1] (vorinostat with carboplatin and paclitaxel at higher dose than present study) was 50%. Also, in data set [1] (setting [5]), the “patients with PR, head and neck cancer” value is 1; the “patients with PR, non-small-cell lung cancer” value is listed as 10.

Regarding `CCCC(CCC)C(=O)O` [valproic acid], the dose-limiting toxicities result in data set [2] (setting [6]) is “neurological DLTs”. Moreover, in data set [2] (setting [6]), the “grade II–III QTc prolongation, patients” value was “approximately 25%”. Also, the patients who responded in data set [2] (of 41 patients with a variety of solid tumours) is 9; in data set [2] (phase II portion, breast cancer), 64%.

Take `CC(=O)O[C@H]1C(=O)[C@@]2(C)[C@H]([C@H](OC(=O)c3ccccc3)[C@]3(O)C[C@H](OC(=O)[C@H](O)[C@@H](NC(=O)c4ccccc4)c4ccccc4)C(C)=C1C3(C)C)[C@]1(OC(C)=O)CO[C@@H]1C[C@@H]2O` [paclitaxel]: in data set [3] (setting [7]), the area under the curve (AUC) turned out to be 14 ± 2.5 µM·h, the AUC(0-inf) stood at 14.7 ± 2.6 µM·h, the Cmax worked out at 3.9 ± 0.7 µM and the half-life was 342 ± 30 min. In data set [3] (setting [8]), this molecule gave an AUC of 12.8 ± 1.7 µM·h, an AUC(0-inf) of 13.3 ± 2 µM·h and a half-life of 330 ± 66 min. In data set [3] (setting [9]), this molecule showed an exposure (AUC) of 14.4 ± 3.8 µM·h, a total exposure AUC(0-inf) of 15 ± 4 µM·h and a half-life of 330 ± 36 min. In addition, in data set [3] (setting [10]), the Cl is recorded as 14.3±2.2 l h^−1 m^−2 and the Vss is on record as 56.6±21.2 l m^−2. Also, in data set [3] (setting [11]), the Cl worked out at 15.7±2.6 l h^−1 m^−2 and the Vss was 53.0±3.0 l m^−2. In data set [3] (setting [12]), this molecule showed a Cl of 14.8±4.9 l h^−1 m^−2 and a Vss of 57.2±31.7 l m^−2. For the same molecule, the “effect of concurrent administration on pharmacokinetics” value in data set [3] (paclitaxel after belinostat) is “unaltered”.

As for `N.N.O=C([O-])C1(C(=O)[O-])CCC1.[Pt+2]` [carboplatin], the “effect of concurrent administration on pharmacokinetics” value in data set [4] (carboplatin after belinostat) is reported as “unaltered”. For the same molecule, in data set [4] (setting [13]), the AUCall came to 7.8 ± 1.4 mg·min/mL, the AUCinf is 8.8 ± 1.3 mg·min/mL, the Cl came to 4.4 ± 0.9 L/h and the maximum concentration (Cmax) was found to be 27.4 ± 4.0 µg/mL. Further, in data set [4] (setting [13]), the T1/2 was 7.8 ± 2.7 h and the Vss came out at 34.3 ± 16.1 L. Further, in data set [4] (setting [14]), the AUCall stood at 8.9 ± 2.1 mg·min/mL, the AUCinf was 9.7 ± 1.9 mg·min/mL, the Cl stood at 4.1 ± 0.5 L/h and the highest concentration (Cmax) was determined as 32.8 ± 11.7 µg/mL. For the same molecule, in data set [4] (setting [14]), the T1/2 came out at 5.4 ± 1.0 h and the Vss was 21.9 ± 7.6 L. In data set [4] (setting [15]), the AUCall was 8.4 ± 1.0 mg·min/mL, the AUCinf came out at 9.3 ± 1.1 mg·min/mL, the Cl was 3.5 ± 0.8 L/h and the highest concentration (Cmax) came out at 29.6 ± 14.0 µg/mL. In data set [4] (setting [15]), the T1/2 was determined as 6.0 ± 0.8 h and the Vss worked out at 20.4 ± 3.5 L. Further, in data set [4] (setting [16]), the AUCall amounted to 8.2 ± 1.4 mg·min/mL, the AUCinf stood at 9.2 ± 1.3 mg·min/mL, the Cl is 3.9 ± 0.8 L/h and the peak concentration (Cmax) is 29.2 ± 1.0 µg/mL. Further, in data set [4] (setting [16]), the T1/2 came out at 6.6 ± 2.1 h and the Vss was 26.4 ± 12.5 L.

One may read the AUC as concentration integrated over time. Read a low AUC as less exposure. One may read the AUC(0-inf) as the area under the concentration-time curve extrapolated to infinity. A high value points to more exposure. By Cmax is commonly meant the peak of the concentration-time curve. One may read the half-life as how long it takes for the measured level to halve. Low values mean fast loss, high ones slow loss.
